# Laboratory results published in ChEMBL document CHEMBL6109109, “Fatty acid binding protein 5 inhibitors as novel anticancer agents against metastatic castration-resistant prostate cancer” (Bioorg Med Chem, 2025).
# Assays:
# PC-3 [1] = experiment: Synergistic anticancer activity against human PC-3 cells assessed as cell growth inhibition at 10 uM measured after 72 hrs in presence of 0.00001 uM of topotecan by MTT assay relative to control; type: functional; settings: read-out: GI
# [2] = Synergistic anticancer activity against mouse RCaP cells assessed as cell growth inhibition at […] measured after 72 hrs in presence of 0.0001 uM of topotecan by MTT assay relative to control; type: functional; settings: dose 2.5 µM, read-out: GI
# [3] = Synergistic anticancer activity against mouse RCaP cells assessed as cell growth inhibition at 20 uM measured after 72 hrs in presence of 1 uM of topotecan by MTT assay relative to control; type: functional; settings: read-out: GI
# PC-3 [4] = experiment: Synergistic anticancer activity against human PC-3 cells assessed as cell growth inhibition at 10 uM measured after 72 hrs in presence of 10 uM of topotecan by MTT assay relative to control; type: functional; settings: read-out: GI
# [5] = Synergistic anticancer activity against mouse RCaP cells assessed as cell growth inhibition at […] measured after 72 hrs in presence of 1 uM of topotecan by MTT assay relative to control; type: functional; settings: dose 2.5 µM, read-out: GI
# [6] = Synergistic anticancer activity against mouse RCaP cells assessed as cell growth inhibition at 20 uM measured after 72 hrs in presence of 0.0001 uM of topotecan by MTT assay relative to control; type: functional; settings: read-out: GI
# PC-3 [7] = experiment: Synergistic anticancer activity against human PC-3 cells assessed as cell growth inhibition at 10 uM measured after 72 hrs in presence of 0.1 uM of topotecan by MTT assay relative to control; type: functional; settings: read-out: GI
# PC-3 [8] = experiment: Synergistic anticancer activity against human PC-3 cells assessed as cell growth inhibition at 10 uM measured after 72 hrs in presence of 1 uM of topotecan by MTT assay relative to control; type: functional; settings: read-out: GI
# [9] = Synergistic anticancer activity against mouse RCaP cells assessed as cell growth inhibition at 20 uM measured after 72 hrs in presence of 10 uM of topotecan by MTT assay relative to control; type: functional; settings: read-out: GI
# [10] = Synergistic anticancer activity against mouse RCaP cells assessed as cell growth inhibition at 10 uM measured after 72 hrs in presence of 0.01 uM of topotecan by MTT assay relative to control; type: functional; settings: read-out: GI
# PC-3 [11] = experiment: Synergistic anticancer activity against human PC-3 cells assessed as cell growth inhibition at 20 uM measured after 72 hrs in presence of 0.01 uM of topotecan by MTT assay relative to control; type: functional; settings: read-out: GI
# [12] = Synergistic anticancer activity against mouse RCaP cells assessed as cell growth inhibition at 10 uM measured after 72 hrs in presence of 0.001 uM of topotecan by MTT assay relative to control; type: functional; settings: read-out: GI
# [13] = Synergistic anticancer activity against mouse RCaP cells assessed as cell growth inhibition at 5 uM measured after 72 hrs in presence of 1 uM of topotecan by MTT assay relative to control; type: functional; settings: read-out: GI
# [14] = Synergistic anticancer activity against mouse RCaP cells assessed as cell growth inhibition at […] measured after 72 hrs in presence of 0.01 uM of topotecan by MTT assay relative to control; type: functional; settings: dose 2.5 µM, read-out: GI
# [15] = Synergistic anticancer activity against mouse RCaP cells assessed as cell growth inhibition at 20 uM measured after 72 hrs in presence of 0.1 uM of topotecan by MTT assay relative to control; type: functional; settings: read-out: GI
# [16] = Synergistic anticancer activity against mouse RCaP cells assessed as cell growth inhibition at 20 uM measured after 72 hrs in presence of 0.001 uM of topotecan by MTT assay relative to control; type: functional; settings: read-out: GI
# [17] = Cytotoxicity against human WI-38 cells assessed as reduction in cell viability measured after 72 hrs by MTT assay; type: toxicity, cell-based
# [18] = Synergistic anticancer activity against mouse RCaP cells assessed as cell growth inhibition at 5 uM measured after 72 hrs in presence of 0.1 uM of topotecan by MTT assay relative to control; type: functional; settings: read-out: GI
# [19] = Synergistic anticancer activity against mouse RCaP cells assessed as cell growth inhibition at 5 uM measured after 72 hrs in presence of 0.00001 uM of topotecan by MTT assay relative to control; type: functional; settings: read-out: GI
# PC-3 [20] = experiment: Synergistic anticancer activity against human PC-3 cells assessed as cell growth inhibition at 10 uM measured after 72 hrs in presence of 0.0001 uM of topotecan by MTT assay relative to control; type: functional; settings: read-out: GI
# [21] = Synergistic anticancer activity against mouse RCaP cells assessed as cell growth inhibition at […] measured after 72 hrs in presence of 10 uM of topotecan by MTT assay relative to control; type: functional; settings: dose 2.5 µM, read-out: GI
# [22] = Synergistic anticancer activity against mouse RCaP cells assessed as cell growth inhibition at […] measured after 72 hrs in presence of 0.00001 uM of topotecan by MTT assay relative to control; type: functional; settings: dose 2.5 µM, read-out: GI
# [23] = Synergistic anticancer activity against mouse RCaP cells assessed as cell growth inhibition at […] measured after 72 hrs in presence of 0.1 uM of topotecan by MTT assay relative to control; type: functional; settings: dose 2.5 µM, read-out: GI
# [24] = Synergistic anticancer activity against mouse RCaP cells assessed as cell growth inhibition at 20 uM measured after 72 hrs in presence of 0.01 uM of topotecan by MTT assay relative to control; type: functional; settings: read-out: GI
# [25] = Synergistic anticancer activity against mouse RCaP cells assessed as cell growth inhibition at 10 uM measured after 72 hrs in presence of 0.0001 uM of topotecan by MTT assay relative to control; type: functional; settings: read-out: GI
# PC-3 [26] = experiment: Synergistic anticancer activity against human PC-3 cells assessed as cell growth inhibition at 5 uM measured after 72 hrs in presence of 0.1 uM of topotecan by MTT assay relative to control; type: functional; settings: read-out: GI
# [27] = Cytotoxicity against mouse RCaP cells assessed as cell growth inhibition at 10 uM measured after 72 hrs by MTT assay relative to control; type: functional; settings: read-out: GI
# [28] = Synergistic anticancer activity against mouse RCaP cells assessed as cell growth inhibition at 5 uM measured after 72 hrs in presence of 0.01 uM of topotecan by MTT assay relative to control; type: functional; settings: read-out: GI
# PC-3 [29] = experiment: Cytotoxicity against human PC-3 cells assessed as cell growth inhibition at 20 uM measured after 72 hrs by MTT assay relative to control; type: functional; settings: read-out: GI
# PC-3 [30] = experiment: Synergistic anticancer activity against human PC-3 cells assessed as cell growth inhibition at 5 uM measured after 72 hrs in presence of 1 uM of topotecan by MTT assay relative to control; type: functional; settings: read-out: GI
# [31] = Synergistic anticancer activity against mouse RCaP cells assessed as cell growth inhibition at 5 uM measured after 72 hrs in presence of 0.0001 uM of topotecan by MTT assay relative to control; type: functional; settings: read-out: GI
# [32] = Synergistic anticancer activity against mouse RCaP cells assessed as cell growth inhibition at 5 uM measured after 72 hrs in presence of 0.001 uM of topotecan by MTT assay relative to control; type: functional; settings: read-out: GI
# [33] = Synergistic anticancer activity against mouse RCaP cells assessed as cell growth inhibition at […] measured after 72 hrs in presence of 0.001 uM of topotecan by MTT assay relative to control; type: functional; settings: dose 2.5 µM, read-out: GI
# PC-3 [34] = experiment: Synergistic anticancer activity against human PC-3 cells assessed as cell growth inhibition at 5 uM measured after 72 hrs in presence of 10 uM of topotecan by MTT assay relative to control; type: functional; settings: read-out: GI
SMILES,inhibition of growth at 10 µM (PC-3 [1]) [%],inhibition of growth at […] [2] [%],inhibition of growth at 20 µM [3] [%],inhibition of growth at 10 µM (PC-3 [4]) [%],inhibition of growth at […] [5] [%],inhibition of growth at 20 µM [6] [%],inhibition of growth at 10 µM (PC-3 [7]) [%],inhibition of growth at 10 µM (PC-3 [8]) [%],inhibition of growth at 20 µM [9] [%],inhibition of growth at 10 µM [10] [%],inhibition of growth at 20 µM (PC-3 [11]) [%],inhibition of growth at 10 µM [12] [%],inhibition of growth at 5 µM [13] [%],inhibition of growth at […] [14] [%],inhibition of growth at 20 µM [15] [%],inhibition of growth at 20 µM [16] [%],IC50 at 72 h [17] [µM],inhibition of growth at 5 µM [18] [%],inhibition of growth at 5 µM [19] [%],inhibition of growth at 10 µM (PC-3 [20]) [%],also measured
O=C(O)[C@H]1[C@H](c2ccccc2)[C@H](C(=O)Oc2cc(-c3ccc4c(c3)OCO4)ccc2-c2ccccc2)[C@H]1c1ccccc1,78.9,10.1,98.8,90.8,98.6,96.7,82.4,92,99.2,71.7,98.2,71.9,97.9,12.2,98.9,97.8,19.5,87.2,27,78.5,inhibition of growth at […] [21]: 99.9%; inhibition of growth at […] [22]: 5.43%; inhibition of growth at […] [23]: 82%; inhibition of growth at 20 µM [24]: 97.8%; inhibition of growth at 10 µM [25]: 68%; inhibition of growth at 5 µM (PC-3 [26]): 49.9%; inhibition of growth at 10 µM [27]: 58.6%; inhibition of growth at 5 µM [28]: 34.4%; inhibition of growth at 20 µM (PC-3 [29]): 96.1%; inhibition of growth at 5 µM (PC-3 [30]): 72.2%; inhibition of growth at 5 µM [31]: 24.6%; inhibition of growth at 5 µM [32]: 28.3%; inhibition of growth at […] [33]: 6.33%; inhibition of growth at 5 µM (PC-3 [34]): 80.8%
COc1ccccc1[C@H]1[C@H](C(=O)O)[C@H](c2ccccc2OC)[C@H]1C(=O)Oc1cc(-c2ccc3c(c2)OCO3)ccc1-c1ccccc1,69.5,-3.7,100,92.2,98.2,100,81.4,88.7,100,87.8,98.7,88.4,97.9,20.6,99.6,100,10.8,91.9,27.6,67.7,inhibition of growth at […] [21]: 98.9%; inhibition of growth at […] [22]: -1.97%; inhibition of growth at […] [23]: 89.9%; inhibition of growth at 20 µM [24]: 100%; inhibition of growth at 10 µM [25]: 89.4%; inhibition of growth at 5 µM (PC-3 [26]): 66.6%; inhibition of growth at 10 µM [27]: 78.2%; inhibition of growth at 5 µM [28]: 49.6%; inhibition of growth at 20 µM (PC-3 [29]): 99.2%; inhibition of growth at 5 µM (PC-3 [30]): 89.8%; inhibition of growth at 5 µM [31]: 26.8%; inhibition of growth at 5 µM [32]: 36.1%; inhibition of growth at […] [33]: 1.77%; inhibition of growth at 5 µM (PC-3 [34]): 92.5%
COc1ccccc1[C@H]1[C@H](C(=O)O)[C@H](c2ccccc2OC)[C@H]1C(=O)OCC1c2ccccc2-c2ccccc21,56.3,-4.8,99.1,86.2,98.1,97.5,66.8,82.2,99.3,75.2,99.8,76.7,99,11.7,99.9,98.5,23,93.6,9.57,59.3,inhibition of growth at […] [21]: 99.6%; inhibition of growth at […] [22]: 0.97%; inhibition of growth at […] [23]: 86.6%; inhibition of growth at 20 µM [24]: 98.2%; inhibition of growth at 10 µM [25]: 75.1%; inhibition of growth at 5 µM (PC-3 [26]): 56.3%; inhibition of growth at 10 µM [27]: 64.9%; inhibition of growth at 5 µM [28]: 31.8%; inhibition of growth at 20 µM (PC-3 [29]): 89.1%; inhibition of growth at 5 µM (PC-3 [30]): 81%; inhibition of growth at 5 µM [31]: 17.6%; inhibition of growth at 5 µM [32]: 32.3%; inhibition of growth at […] [33]: 6.8%; inhibition of growth at 5 µM (PC-3 [34]): 86.4%
